Test results from patent US11987588B2, “Modulators of the beta-3 adrenergic receptor useful for the treatment or prevention of heart failure and disorders related thereto” (Arena Pharmaceuticals, Inc., priority 2017, dated 2024).

molecular target: Beta-3 Adrenergic Receptor (Homo sapiens (Human), UniProt P13945); test: Homogeneous Time-Resolved Fluorescence (HTRF) cAMP antagonist assay, IC50 determination; assay type: cell-based; conditions: CHO-K1 cells stably expressing recombinant receptor, isoproterenol at EC90
Outline: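 CHO-K1 cells stably expressing the recombinant receptor were preincubated with compound (10-point, 5-fold dilutions; top final typically 10 or 100 μM) in PBS with 1 mM IBMX, then stimulated with isoproterenol at its EC90 for 1 h at room temperature. cAMP was read by HTRF against an on-plate standard curve.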

Beta-3 Adrenergic Receptor, sequence (P13945 whole entry, species assumed): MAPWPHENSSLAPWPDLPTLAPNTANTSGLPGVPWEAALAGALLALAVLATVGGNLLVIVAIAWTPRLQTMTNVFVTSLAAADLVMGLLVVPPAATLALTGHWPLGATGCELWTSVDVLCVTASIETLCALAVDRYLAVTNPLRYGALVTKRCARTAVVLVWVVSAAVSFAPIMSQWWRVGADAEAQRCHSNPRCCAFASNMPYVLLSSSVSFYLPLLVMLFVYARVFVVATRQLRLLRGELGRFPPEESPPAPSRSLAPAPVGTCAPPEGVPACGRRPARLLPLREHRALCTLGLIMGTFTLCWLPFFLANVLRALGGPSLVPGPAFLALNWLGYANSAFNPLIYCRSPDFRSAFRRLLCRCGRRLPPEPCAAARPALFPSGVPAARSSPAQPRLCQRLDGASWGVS

SMILES | IC50
CNS(=O)(=O)c1cccc(OC[C@@H](O)CNC2COC3(CCN(S(=O)(=O)c4cccc(-c5cnn(CC(C)C)c5)c4)CC3)C2)c1 (stereo partly drawn) [Compound 81, 3-((2S)-2-hydroxy-3-(8-(3-(1-isobutyl-1H-pyrazol-4-yl)phenylsulfonyl)-1-oxa-8-azaspiro[4.5]decan-3-ylamino)propoxy)-N-methylbenzenesulfonamide] | 16.6 nM
CCC(C)NS(=O)(=O)c1cccc(OC[C@@H](O)CNC2COC3(CCN(S(=O)(=O)c4ccc5ccccc5c4)CC3)C2)c1 (stereo partly drawn) [Compound 10, N-sec-butyl-3-((2S)-2-hydroxy-3-(8-(naphthalen-2-ylsulfonyl)-1-oxa-8-azaspiro[4.5]decan-3-ylamino)propoxy)benzenesulfonamide] | 49.2 nM
CN(C)CCCNS(=O)(=O)c1cccc(OC[C@@H](O)CNC2COC3(CCN(S(=O)(=O)c4ccc5c(c4)NC(=O)CO5)CC3)C2)c1 (stereo partly drawn) [Compound 311, N-(3-(dimethylamino)propyl)-3-((2S)-2-hydroxy-3-(8-(3-oxo-3,4-dihydro-2H-benzo[b][1,4]oxazin-6-ylsulfonyl)-1-oxa-8-azaspiro[4.5]decan-3-ylamino)propoxy)benzenesulfonamide] | 2000 nM
CNS(=O)(=O)c1cccc(OC[C@@H](O)CN[C@H]2COC3(CCN(S(=O)(=O)c4cnc5[nH]nc(C)c5c4)CC3)C2)c1 [Compound 497, 3-((S)-2-hydroxy-3-((R)-8-(3-methyl-1H-pyrazolo[3,4-b]pyridin-5-ylsulfonyl)-1-oxa-8-azaspiro[4.5]decan-3-ylamino)propoxy)-N-methylbenzenesulfonamide] | 16.4 nM
CN(C)S(=O)(=O)c1cccc(OC[C@@H](O)CNC2COC3(CCN(S(=O)(=O)c4ccc5nsnc5c4)CC3)C2)c1 (stereo partly drawn) [Compound 251, 3-((2S)-3-(8-(benzo[c][1,2,5]thiadiazol-5-ylsulfonyl)-1-oxa-8-azaspiro[4.5]decan-3-ylamino)-2-hydroxypropoxy)-N,N-dimethylbenzenesulfonamide] | 32.9 nM
CNS(=O)(=O)c1cccc(OC[C@@H](O)CN[C@H]2COC3(CCN(S(=O)(=O)c4cnc5c(c4)CCO5)CC3)C2)c1 [Compound 504, 3-((S)-3-((R)-8-(2,3-dihydrofuro[2,3-b]pyridin-5-ylsulfonyl)-1-oxa-8-azaspiro[4.5]decan-3-ylamino)-2-hydroxypropoxy)-N-methylbenzenesulfonamide] | 217 nM
CNS(=O)(=O)c1cccc(OC[C@@H](O)CN[C@H]2COC3(CCN(S(=O)(=O)c4cnc5[nH]cnc5c4C)CC3)C2)c1 [Compound 519, 3-((S)-2-hydroxy-3-((R)-8-(7-methyl-3H-imidazo[4,5-b]pyridin-6-ylsulfonyl)-1-oxa-8-azaspiro[4.5]decan-3-ylamino)propoxy)-N-methylbenzenesulfonamide] | 68.4 nM
CNS(=O)(=O)c1cccc(OC[C@@H](O)CN[C@@H]2COC3(CCN(S(=O)(=O)c4cccc(-c5cccnc5)c4)CC3)C2)c1 [Compound 284, 3-((S)-2-hydroxy-3-((S)-8-(3-(pyridin-3-yl)phenylsulfonyl)-1-oxa-8-azaspiro[4.5]decan-3-ylamino)propoxy)-N-methylbenzenesulfonamide] | 11.6 nM
CNS(=O)(=O)c1cccc(OC[C@@H](O)CN[C@@H]2COC3(CCN(S(=O)(=O)c4cnc5ccccc5c4)CC3)C2)c1 [Compound 335, 3-((S)-2-hydroxy-3-((S)-8-(quinolin-3-ylsulfonyl)-1-oxa-8-azaspiro[4.5]decan-3-ylamino)propoxy)-N-methylbenzenesulfonamide] | 12.1 nM
CNS(=O)(=O)c1cccc(OC[C@@H](O)CN[C@H]2COC3(CCN(S(=O)(=O)c4cnc5ncn(C)c5c4)CC3)C2)c1 [Compound 523, 3-((S)-2-hydroxy-3-((R)-8-(1-methyl-1H-imidazo[4,5-b]pyridin-6-ylsulfonyl)-1-oxa-8-azaspiro[4.5]decan-3-ylamino)propoxy)-N-methylbenzenesulfonamide] | 273 nM
CNS(=O)(=O)c1cccc(OC[C@@H](O)CN[C@@H]2COC3(CCN(S(=O)(=O)c4cccc(-c5ccc(OCC#N)cc5)c4)CC3)C2)c1 [Compound 297, 3-((S)-3-((S)-8-(4′-(cyanomethoxy)biphenyl-3-ylsulfonyl)-1-oxa-8-azaspiro[4.5]decan-3-ylamino)-2-hydroxypropoxy)-N-methylbenzenesulfonamide] | 15.9 nM
CNS(=O)(=O)c1cccc(OC[C@@H](O)CNC2COC3(CCN(S(=O)(=O)c4ccc(Cl)cc4)CC3)C2)c1 (stereo partly drawn) [Compound 17, 3-((2S)-3-(8-(4-chlorophenylsulfonyl)-1-oxa-8-azaspiro[4.5]decan-3-ylamino)-2-hydroxypropoxy)-N-methylbenzenesulfonamide] | 15.3 nM
CNS(=O)(=O)c1cccc(OC[C@@H](O)CN[C@H]2COC3(CCN(S(=O)(=O)c4cnc5c(c4)CNCC5)CC3)C2)c1 [Compound 484, 3-((S)-2-hydroxy-3-((R)-8-(5,6,7,8-tetrahydro-1,6-naphthyridin-3-ylsulfonyl)-1-oxa-8-azaspiro[4.5]decan-3-ylamino)propoxy)-N-methylbenzenesulfonamide] | 278 nM
CNS(=O)(=O)c1cccc(OC[C@@H](O)CNC2COC3(CCN(S(=O)(=O)c4ccccc4)CC3)C2)c1 (stereo partly drawn) [Compound 14, 3-((2S)-2-hydroxy-3-(8-(phenylsulfonyl)-1-oxa-8-azaspiro[4.5]decan-3-ylamino)propoxy)-N-methylbenzenesulfonamide] | 30.1 nM
CCn1cc(S(=O)(=O)N2CCC3(CC2)C[C@@H](NC[C@H](O)COc2cccc(S(=O)(=O)NC)c2)CO3)c(=O)c2ccc(C)cc21 [Compound 531, 3-((S)-3-((R)-8-(1-ethyl-7-methyl-4-oxo-1,4-dihydroquinolin-3-ylsulfonyl)-1-oxa-8-azaspiro[4.5]decan-3-ylamino)-2-hydroxypropoxy)-N-methylbenzenesulfonamide] | 50.5 nM

Further molecules by falling IC50, results first:

IC50 | SMILES
429 nM | CNS(=O)(=O)c1cccc(OC[C@@H](O)CN[C@H]2COC3(CCN(c4ccccn4)CC3)C2)c1 [Compound 561, 3-((S)-2-hydroxy-3-((R)-8-(pyridin-2-yl)-1-oxa-8-azaspiro[4.5]decan-3-ylamino)propoxy)-N-methylbenzenesulfonamide]
98.6 nM | CNS(=O)(=O)c1cccc(OC[C@@H](O)CNC2COC3(CCN(S(=O)(=O)c4ccc(NCCOC)nc4)CC3)C2)c1 (stereo partly drawn) [Compound 426, 3-((2S)-2-hydroxy-3-(8-(6-(2-methoxyethylamino)pyridin-3-ylsulfonyl)-1-oxa-8-azaspiro[4.5]decan-3-ylamino)propoxy)-N-methylbenzenesulfonamide]
54.3 nM | CNS(=O)(=O)c1cccc(OC[C@@H](O)CNC2COC3(CCN(S(=O)(=O)c4c(Cl)ccc5nonc45)CC3)C2)c1 (stereo partly drawn) [Compound 262, 3-((2S)-3-(8-(5-chlorobenzo[c][1,2,5]oxadiazol-4-ylsulfonyl)-1-oxa-8-azaspiro[4.5]decan-3-ylamino)-2-hydroxypropoxy)-N-methylbenzenesulfonamide]
35.4 nM | CNS(=O)(=O)c1cccc(OC[C@@H](O)CN[C@H]2COC3(CCN(S(=O)(=O)c4cnc5c(c4)N(C)C[C@H](C)O5)CC3)C2)c1 [Compound 472, 3-((S)-3-((R)-8-((S)-1,3-dimethyl-2,3-dihydro-1H-pyrido[2,3-b][1,4]oxazin-7-ylsulfonyl)-1-oxa-8-azaspiro[4.5]decan-3-ylamino)-2-hydroxypropoxy)-N-methylbenzenesulfonamide]
31.9 nM | CN1CCOc2ncc(S(=O)(=O)N3CCC4(CC3)C[C@@H](NC[C@H](O)COc3cccc(S(=O)(=O)NCC(F)F)c3)CO4)cc21 [Compound 461, N-(2,2-difluoroethyl)-3-((S)-2-hydroxy-3-((R)-8-(1-methyl-2,3-dihydro-1H-pyrido[2,3-b][1,4]oxazin-7-ylsulfonyl)-1-oxa-8-azaspiro[4.5]decan-3-ylamino)propoxy)benzenesulfonamide]
31.2 nM | CNS(=O)(=O)c1cccc(OC[C@@H](O)CNC2COC3(CCN(S(=O)(=O)c4cccc(-c5cccc(CN(C)C)c5)c4)CC3)C2)c1 (stereo partly drawn) [Compound 105, 3-((2S)-3-(8-(3′-((dimethylamino)methyl)biphenyl-3-ylsulfonyl)-1-oxa-8-azaspiro[4.5]decan-3-ylamino)-2-hydroxypropoxy)-N-methylbenzenesulfonamide]
28.4 nM | CNS(=O)(=O)c1cccc(OC[C@@H](O)CNC2COC3(CCN(S(=O)(=O)c4cc(Cl)ccc4C)CC3)C2)c1 (stereo partly drawn) [Compound 240, 3-((2S)-3-(8-(5-chloro-2-methylphenylsulfonyl)-1-oxa-8-azaspiro[4.5]decan-3-ylamino)-2-hydroxypropoxy)-N-methylbenzenesulfonamide]
21.5 nM | CNS(=O)(=O)c1cccc(OC[C@@H](O)CNC2COC3(CCN(S(=O)(=O)c4cc(Cl)ccc4C#N)CC3)C2)c1 (stereo partly drawn) [Compound 145, 3-((2S)-3-(8-(5-chloro-2-cyanophenylsulfonyl)-1-oxa-8-azaspiro[4.5]decan-3-ylamino)-2-hydroxypropoxy)-N-methylbenzenesulfonamide]
21.3 nM | NS(=O)(=O)c1cccc(OC[C@@H](O)CN[C@H]2COC3(CCN(S(=O)(=O)c4c[nH]c5cc(F)ccc5c4=O)CC3)C2)c1 [Compound 555, 3-((S)-3-((R)-8-(7-fluoro-4-oxo-1,4-dihydroquinolin-3-ylsulfonyl)-1-oxa-8-azaspiro[4.5]decan-3-ylamino)-2-hydroxypropoxy)benzenesulfonamide]
13.7 nM | CNS(=O)(=O)c1cccc(OC[C@@H](O)CNC2COC3(CCN(S(=O)(=O)c4cccc(-c5cscc5C)c4)CC3)C2)c1 (stereo partly drawn) [Compound 109, 3-((2S)-2-hydroxy-3-(8-(3-(4-methylthiophen-3-yl)phenylsulfonyl)-1-oxa-8-azaspiro[4.5]decan-3-ylamino)propoxy)-N-methylbenzenesulfonamide]
11.3 nM | CNS(=O)(=O)c1cccc(OC[C@@H](O)CNC2COC3(CCN(S(=O)(=O)c4cc(Cl)ccc4Cl)CC3)C2)c1 (stereo partly drawn) [Compound 140, 3-((2S)-3-(8-(2,5-dichlorophenylsulfonyl)-1-oxa-8-azaspiro[4.5]decan-3-ylamino)-2-hydroxypropoxy)-N-methylbenzenesulfonamide]
